Source: ChEMBL document CHEMBL1145498, “A systematic interaction map of validated kinase inhibitors with Ser/Thr kinases” (Proc Natl Acad Sci U S A, 2007)

What was measured:
[1] = molecular target: Serine/threonine-protein kinase Nek6 (Homo sapiens) (UniProt Q9HC98)
[2] = molecular target: Dual specificity protein kinase CLK2 (Homo sapiens) (UniProt P49760)
[3] = molecular target: Serine/threonine-protein kinase 26 (Homo sapiens) (UniProt Q9P289)
[4] = molecular target: T1, Myotonin-protein kinase (Homo sapiens) (UniProt Q09013)
T1 sequence (whole entry): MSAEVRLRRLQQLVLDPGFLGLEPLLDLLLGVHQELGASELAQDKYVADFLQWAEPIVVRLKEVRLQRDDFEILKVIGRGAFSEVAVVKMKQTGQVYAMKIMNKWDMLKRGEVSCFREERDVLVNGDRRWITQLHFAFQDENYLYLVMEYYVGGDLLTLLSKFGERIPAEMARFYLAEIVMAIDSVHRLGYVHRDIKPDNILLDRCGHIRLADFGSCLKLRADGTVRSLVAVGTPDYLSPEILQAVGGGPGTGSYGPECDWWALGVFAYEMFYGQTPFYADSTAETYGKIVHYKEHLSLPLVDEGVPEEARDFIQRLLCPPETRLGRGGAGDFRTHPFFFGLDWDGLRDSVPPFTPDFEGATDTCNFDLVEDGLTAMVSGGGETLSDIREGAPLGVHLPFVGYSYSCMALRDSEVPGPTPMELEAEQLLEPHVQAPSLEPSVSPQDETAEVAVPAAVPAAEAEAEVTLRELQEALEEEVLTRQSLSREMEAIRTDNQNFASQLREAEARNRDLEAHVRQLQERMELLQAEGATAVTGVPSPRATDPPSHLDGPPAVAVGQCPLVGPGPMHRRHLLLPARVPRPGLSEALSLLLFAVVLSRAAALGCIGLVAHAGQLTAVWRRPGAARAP

[5] = molecular target: Serine/threonine-protein kinase PAK 6 (Homo sapiens) (UniProt Q9NQU5)
Sequence of Serine/threonine-protein kinase PAK 6 (Homo sapiens) (Q9NQU5 whole entry, looked up): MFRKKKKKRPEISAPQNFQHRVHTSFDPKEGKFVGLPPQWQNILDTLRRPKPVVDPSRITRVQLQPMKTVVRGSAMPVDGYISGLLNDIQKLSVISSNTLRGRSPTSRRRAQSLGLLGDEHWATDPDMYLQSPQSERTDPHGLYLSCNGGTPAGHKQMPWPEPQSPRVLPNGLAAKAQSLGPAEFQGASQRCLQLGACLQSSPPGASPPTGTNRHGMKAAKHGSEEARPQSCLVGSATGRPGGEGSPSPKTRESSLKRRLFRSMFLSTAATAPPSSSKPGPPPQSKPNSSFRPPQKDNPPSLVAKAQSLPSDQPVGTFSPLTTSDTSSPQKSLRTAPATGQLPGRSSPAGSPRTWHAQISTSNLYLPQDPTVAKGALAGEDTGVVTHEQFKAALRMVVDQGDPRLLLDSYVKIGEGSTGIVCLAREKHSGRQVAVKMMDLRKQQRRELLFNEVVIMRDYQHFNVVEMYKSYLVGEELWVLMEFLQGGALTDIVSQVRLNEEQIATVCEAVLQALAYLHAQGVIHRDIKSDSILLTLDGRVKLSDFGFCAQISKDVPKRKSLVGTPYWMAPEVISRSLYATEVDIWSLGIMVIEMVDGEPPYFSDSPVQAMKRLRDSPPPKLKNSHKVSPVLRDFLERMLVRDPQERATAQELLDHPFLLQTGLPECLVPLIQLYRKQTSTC

[6] = molecular target: cAMP-dependent protein kinase catalytic subunit alpha (Homo sapiens) (UniProt P17612)
[7] = molecular target: T2, Serine/threonine-protein kinase 17A (Homo sapiens) (UniProt Q9UEE5)
T2 sequence (whole entry): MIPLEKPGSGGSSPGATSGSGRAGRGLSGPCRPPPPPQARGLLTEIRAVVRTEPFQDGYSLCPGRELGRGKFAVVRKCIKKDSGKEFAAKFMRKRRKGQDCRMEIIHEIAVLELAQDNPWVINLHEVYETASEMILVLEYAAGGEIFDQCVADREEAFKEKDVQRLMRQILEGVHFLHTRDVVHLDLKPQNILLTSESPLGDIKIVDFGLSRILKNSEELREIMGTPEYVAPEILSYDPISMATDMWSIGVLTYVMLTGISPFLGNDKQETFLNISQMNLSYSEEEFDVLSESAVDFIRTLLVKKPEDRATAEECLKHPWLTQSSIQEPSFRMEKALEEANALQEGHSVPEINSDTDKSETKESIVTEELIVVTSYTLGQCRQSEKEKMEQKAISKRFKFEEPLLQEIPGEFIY

[8] = molecular target: T3, 3-phosphoinositide-dependent protein kinase 1 (Homo sapiens) (UniProt O15530)
T3 sequence (whole entry): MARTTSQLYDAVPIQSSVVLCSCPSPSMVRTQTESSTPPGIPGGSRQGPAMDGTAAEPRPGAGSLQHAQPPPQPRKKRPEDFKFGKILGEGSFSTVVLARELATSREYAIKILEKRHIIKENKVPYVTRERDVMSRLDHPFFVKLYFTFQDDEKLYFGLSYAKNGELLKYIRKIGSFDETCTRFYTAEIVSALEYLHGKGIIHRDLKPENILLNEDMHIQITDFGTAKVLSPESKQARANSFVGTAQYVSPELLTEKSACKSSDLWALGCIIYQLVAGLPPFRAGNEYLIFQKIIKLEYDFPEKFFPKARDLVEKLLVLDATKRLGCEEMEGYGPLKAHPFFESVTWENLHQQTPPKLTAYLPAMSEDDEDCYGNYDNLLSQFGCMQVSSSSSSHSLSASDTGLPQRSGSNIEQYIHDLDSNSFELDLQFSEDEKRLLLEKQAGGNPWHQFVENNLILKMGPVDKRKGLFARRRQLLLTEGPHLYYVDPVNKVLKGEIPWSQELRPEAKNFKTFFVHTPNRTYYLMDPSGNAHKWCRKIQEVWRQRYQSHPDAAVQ

[9] = molecular target: T4, Serine/threonine-protein kinase PLK4 (Homo sapiens) (UniProt O00444)
T4 sequence (whole entry): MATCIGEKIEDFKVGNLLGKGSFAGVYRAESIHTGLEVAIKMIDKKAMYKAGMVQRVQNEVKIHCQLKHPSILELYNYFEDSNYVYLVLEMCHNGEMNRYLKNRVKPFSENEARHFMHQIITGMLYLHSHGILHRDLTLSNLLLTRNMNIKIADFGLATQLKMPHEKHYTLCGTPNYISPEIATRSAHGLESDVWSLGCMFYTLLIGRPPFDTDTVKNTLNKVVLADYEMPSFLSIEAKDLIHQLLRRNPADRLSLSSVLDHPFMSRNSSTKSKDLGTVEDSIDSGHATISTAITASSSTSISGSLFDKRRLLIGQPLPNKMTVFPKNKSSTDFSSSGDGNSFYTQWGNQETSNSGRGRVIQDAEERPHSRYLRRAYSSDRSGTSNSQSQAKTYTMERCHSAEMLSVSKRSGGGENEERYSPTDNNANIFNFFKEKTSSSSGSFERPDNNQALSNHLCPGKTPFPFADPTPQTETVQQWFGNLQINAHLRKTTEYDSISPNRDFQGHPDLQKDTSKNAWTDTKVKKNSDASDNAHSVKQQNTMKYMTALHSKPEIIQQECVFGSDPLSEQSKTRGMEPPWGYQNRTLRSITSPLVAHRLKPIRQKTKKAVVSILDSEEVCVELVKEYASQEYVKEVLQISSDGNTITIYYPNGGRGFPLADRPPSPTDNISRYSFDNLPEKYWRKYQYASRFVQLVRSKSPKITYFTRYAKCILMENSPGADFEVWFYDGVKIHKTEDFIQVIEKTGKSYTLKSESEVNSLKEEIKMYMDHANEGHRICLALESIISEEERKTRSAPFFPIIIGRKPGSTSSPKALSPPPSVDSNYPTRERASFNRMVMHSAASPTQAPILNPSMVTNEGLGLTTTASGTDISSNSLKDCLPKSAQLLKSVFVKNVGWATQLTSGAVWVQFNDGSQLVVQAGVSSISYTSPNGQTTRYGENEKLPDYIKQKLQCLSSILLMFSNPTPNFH

[10] = molecular target: Mitogen-activated protein kinase 11 (Homo sapiens, UniProt Q15759)
Sequence of Mitogen-activated protein kinase 11 (Q15759 whole entry): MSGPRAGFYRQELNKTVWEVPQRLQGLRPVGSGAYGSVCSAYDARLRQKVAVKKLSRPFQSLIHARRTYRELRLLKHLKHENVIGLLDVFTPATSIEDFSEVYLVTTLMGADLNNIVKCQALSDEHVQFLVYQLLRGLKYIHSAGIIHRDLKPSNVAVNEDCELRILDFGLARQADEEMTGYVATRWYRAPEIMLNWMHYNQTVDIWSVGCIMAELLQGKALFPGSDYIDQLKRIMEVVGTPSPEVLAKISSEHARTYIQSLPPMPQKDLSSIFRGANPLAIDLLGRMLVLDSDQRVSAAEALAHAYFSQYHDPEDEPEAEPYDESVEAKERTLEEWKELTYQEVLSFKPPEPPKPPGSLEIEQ

[11] = molecular target: Serine/threonine-protein kinase VRK2 (Homo sapiens) (UniProt Q86Y07)
Sequence of Serine/threonine-protein kinase VRK2 (Homo sapiens) (Q86Y07 whole entry): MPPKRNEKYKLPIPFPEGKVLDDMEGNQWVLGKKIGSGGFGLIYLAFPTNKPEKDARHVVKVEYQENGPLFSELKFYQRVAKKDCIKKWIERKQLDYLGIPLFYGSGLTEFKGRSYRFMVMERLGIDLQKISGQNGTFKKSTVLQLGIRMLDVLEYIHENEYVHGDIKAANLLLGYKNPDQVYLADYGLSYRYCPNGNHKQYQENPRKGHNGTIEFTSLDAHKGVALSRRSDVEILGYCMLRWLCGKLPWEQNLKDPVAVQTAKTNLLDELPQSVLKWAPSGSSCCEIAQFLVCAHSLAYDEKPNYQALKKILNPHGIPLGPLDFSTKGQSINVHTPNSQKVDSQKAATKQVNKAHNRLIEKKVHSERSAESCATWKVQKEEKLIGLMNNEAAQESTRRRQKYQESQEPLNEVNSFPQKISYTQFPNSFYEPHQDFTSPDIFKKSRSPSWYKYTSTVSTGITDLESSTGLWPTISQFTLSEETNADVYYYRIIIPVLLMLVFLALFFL

Sequence of Serine/threonine-protein kinase Nek6 (Homo sapiens) (Q9HC98 whole entry): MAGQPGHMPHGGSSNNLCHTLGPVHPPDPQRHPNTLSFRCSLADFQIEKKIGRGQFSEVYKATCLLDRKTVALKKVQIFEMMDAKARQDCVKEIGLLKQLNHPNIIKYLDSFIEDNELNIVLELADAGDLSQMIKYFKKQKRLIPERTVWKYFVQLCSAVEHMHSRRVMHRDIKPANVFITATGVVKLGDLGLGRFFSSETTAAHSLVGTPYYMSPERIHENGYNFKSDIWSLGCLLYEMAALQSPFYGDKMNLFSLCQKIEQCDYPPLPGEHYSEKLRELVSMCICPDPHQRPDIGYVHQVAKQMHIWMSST
Sequence of Serine/threonine-protein kinase 26 (Homo sapiens) (Q9P289 2-416 limits assumed): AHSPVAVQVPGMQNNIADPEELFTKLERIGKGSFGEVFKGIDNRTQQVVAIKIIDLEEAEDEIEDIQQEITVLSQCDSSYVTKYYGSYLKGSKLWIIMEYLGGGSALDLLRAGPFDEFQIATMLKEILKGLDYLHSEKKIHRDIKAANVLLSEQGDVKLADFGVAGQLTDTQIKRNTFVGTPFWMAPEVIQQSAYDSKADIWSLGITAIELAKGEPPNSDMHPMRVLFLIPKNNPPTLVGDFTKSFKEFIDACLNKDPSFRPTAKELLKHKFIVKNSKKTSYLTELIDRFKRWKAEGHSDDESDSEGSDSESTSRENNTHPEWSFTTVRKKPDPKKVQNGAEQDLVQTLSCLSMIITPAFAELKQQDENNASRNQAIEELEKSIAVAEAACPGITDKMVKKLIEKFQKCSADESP
Sequence of Dual specificity protein kinase CLK2 (Homo sapiens) (P49760 whole entry, looked up): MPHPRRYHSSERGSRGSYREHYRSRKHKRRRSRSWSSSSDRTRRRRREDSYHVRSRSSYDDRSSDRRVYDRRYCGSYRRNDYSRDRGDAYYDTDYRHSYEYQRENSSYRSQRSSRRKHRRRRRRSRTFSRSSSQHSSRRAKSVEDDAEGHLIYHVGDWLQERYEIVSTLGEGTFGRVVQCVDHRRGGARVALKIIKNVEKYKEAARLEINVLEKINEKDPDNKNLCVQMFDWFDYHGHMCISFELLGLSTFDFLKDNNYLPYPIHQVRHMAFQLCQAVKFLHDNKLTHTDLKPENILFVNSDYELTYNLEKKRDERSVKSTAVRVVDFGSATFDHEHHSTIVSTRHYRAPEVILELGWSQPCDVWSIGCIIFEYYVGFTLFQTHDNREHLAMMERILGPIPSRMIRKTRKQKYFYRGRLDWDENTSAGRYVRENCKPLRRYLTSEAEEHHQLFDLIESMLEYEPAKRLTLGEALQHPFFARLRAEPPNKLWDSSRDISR

Structure (SMILES) | ΔTm [1] | ΔTm [2] | ΔTm [3] | ΔTm [4] | ΔTm [5] | ΔTm [6] | ΔTm [7] | ΔTm [8] | ΔTm [9] | ΔTm [10] | ΔTm [11]
COc1cc2ncnc(Nc3ccc(NC(=O)c4ccccc4)cc3)c2cc1OC [ANILINOQUINAZOLINE1] | 0.5 °C | 0 °C | 0 °C | 1.1 °C | 0.6 °C | 1 °C | 2.1 °C | 1.1 °C | 0.5 °C | 0.3 °C | 
CC(C)[C@H](CO)Nc1nc(Nc2cc(N)cc(Cl)c2)c2ncn(C(C)C)c2n1 [AMINOPURVALANOL] | 0 °C | 4.5 °C |  | 2 °C | 0.1 °C | 6.5 °C | 1.6 °C | 1.4 °C | 6.2 °C | 2.8 °C | 
CC[C@H](CO)Nc1nc(NCc2ccccc2)c2ncn(C(C)C)c2n1 [SELICICLIB] |  | 2.3 °C | 0.3 °C | -0.7 °C | 0.5 °C | 0.2 °C | -0.5 °C | 0.2 °C | 0.3 °C | 1 °C | 2.1 °C
Cc1nc(N)sc1-c1ccnc(Nc2cccc([N+](=O)[O-])c2)n1 | 1.4 °C | 7.9 °C | 0.4 °C | 7.6 °C | -1.1 °C | 4.8 °C | 1.9 °C | 1.9 °C | 2.3 °C | 1.2 °C | 
CCCNC(=O)Nc1ccc(Oc2ncnc3cc(OC)c(OC)cc23)cc1Cl [KRN-633] | 0.8 °C | -0.2 °C | -0.1 °C | 0.6 °C | 0.8 °C | 1 °C | 2.7 °C | -0.1 °C | 1 °C | -0.3 °C | 
NCCNc1ncc(C(N)=O)c(Nc2cccc(C(F)(F)F)c2)n1 | 2 °C | 1.6 °C | 0.1 °C | 3.9 °C | 0.9 °C | 2.3 °C | 3.2 °C | 5.5 °C | 0.3 °C | 2 °C | 
O=C(Nc1cccc(Nc2nccc(Nc3cccc(C(F)(F)F)c3)n2)c1)C1CC1 [ANILINOPYRIMIDINE1] | 1.7 °C | 0.6 °C | 0.7 °C | 9.3 °C | -0.9 °C | 1.3 °C | 1.5 °C | 1.6 °C | 2.2 °C | 0.8 °C | 
Cc1[nH]c(/C=C2\C(=O)Nc3ccc(S(=O)(=O)N(C)c4cccc(Cl)c4)cc32)c(C)c1C(=O)N1CCN(C)CC1 | 0.4 °C | 5.9 °C | -0.2 °C | 2.2 °C | 2 °C | 3.1 °C | 3.3 °C | -0.6 °C | 0.8 °C | 0.1 °C | 
COc1ccc(Cl)cc1NC(=O)Nc1cc(C)nc2ccccc12 | 0 °C | 0.6 °C |  | 0.1 °C | 1.9 °C | 4.8 °C | -0.1 °C | 3 °C | 3.4 °C | 1.4 °C | 
COc1cc2c(cc1OC)-c1n[nH]c(Nc3cccc(F)c3)c1C2 | 0.1 °C | 1.1 °C | -0.2 °C | 2.4 °C | 0.5 °C | 0.9 °C | 1.3 °C | -0.2 °C | 1.5 °C | 0.1 °C | 
CN(c1cccnc1)c1cc2c(Nc3ccc(F)c(Cl)c3)c(C#N)cnc2cn1 | 1.5 °C | 4.3 °C | 0.7 °C | 5.3 °C | -0.2 °C | 2.2 °C | 4.7 °C | 1.2 °C | 8.2 °C | 0.7 °C | 
CC(C)c1nn(-c2c(Cl)cccc2Cl)c2nc(Cc3ccc(OCCO)cc3)[nH]c(=O)c12 | 2 °C | 1.3 °C | 0.5 °C | -1.2 °C | -0.1 °C | -0.1 °C | 0.1 °C | 0 °C | 2.9 °C | 0.7 °C | 
O=C(Nc1cccc(Nc2cc(Nc3cccc(C(F)(F)F)c3)ncn2)c1)C1CC1 | -0.4 °C | 0.9 °C | 0.8 °C | 4 °C | -0.3 °C | 1.1 °C | 1.5 °C | 1.7 °C | 2 °C | 2.8 °C | 
CN(C)C[C@@H]1CCn2cc(c3ccccc32)C2=C(C(=O)NC2=O)c2cn(c3ccccc23)CCO1 [RUBOXISTAURIN] | -0.6 °C | 4.2 °C | 4.1 °C | 5.3 °C | 0.8 °C |  | -0.2 °C | 0.2 °C | 1.5 °C | 0.3 °C | 1 °C
COc1nccc(-c2c(-c3ccc(F)cc3)ncn2[C@H]2CC[C@H](O)CC2)n1 | -0.3 °C | 0.8 °C | 2.8 °C |  | -0.3 °C | -0.8 °C | 0 °C | 0 °C | 0.1 °C | 6.6 °C | 0.8 °C
CN1CCc2[nH]c(=S)c(C#N)c(-c3cccs3)c2C1 | 0 °C | 6.2 °C |  | 7.8 °C | 0 °C | 14.1 °C | 0.9 °C | 1.5 °C | 10.7 °C | 4.3 °C | 
Cc1ccc(NC2=CC(=O)c3sc(C)nc3C2=O)cc1 | -0.6 °C | -1 °C | -0.5 °C | -2.4 °C | -2.1 °C | -0.4 °C | -0.8 °C | -3.4 °C | -0.3 °C | -0.6 °C | 
